{
  "source": "patent US20150290226A1",
  "about": "“NOVEL LYOPHILIZED COMPOSITIONS OF CYCLOPHOSPHAMIDE” (LEIUTIS PHARMACEUTICALS PVT. LTD., priority 2012, published 2015)",
  "key": {"[1]": {"procedure": "The solubility of Cyclophosphamide monohydrate in various solvents was checked. The quantity of solvent consumed for dissolving 100 mg of Cyclophosphamide monohydrate is given below: […]"}, "[2]": {"experiment": "Water activity of drug substance and lyophilizate", "format": "physicochemical", "conditions": "Sample numbers I, II, III, listed as Drug substance (Monohydrate Form)", "excerpt": "(§1) The moisture content and water activity of the drug substance as well as the lyophilizate was checked to ensure the retention of the crystalline monohydrate form of the drug substance in the Lyophilizate. Water activity instruments measure the amount of free (sometimes referred to as unbound or active) water present in the sample and KF titration measures the total water in a sample."}, "[3]": {"experiment": "Moisture content (KF titration) of drug substance and lyophilizate", "format": "physicochemical", "conditions": "Sample numbers I, II, III, listed as Drug substance (Monohydrate Form)", "excerpt": "as §1"}, "[4]": {"excerpt": "The change of description of Cyclophosphamide monohydrate at various temperatures was studied by exposing the drug to different temperatures under constant vacuum and details are given in Tables 6 & 7: […]", "remark": "listed apart in the source"}, "[5]": {"conditions": "Vacuum 1000 mtorr, +25° C. (5 hrs)"}, "[6]": {"conditions": "Vacuum 1000 mtorr, −2° C. (12 hrs)"}, "[7]": {"conditions": "Vacuum 1000 mtorr, −15° C. (19 hrs)"}, "[8]": {"conditions": "Vacuum 1000 mtorr, −25° C. (12 hrs)"}, "[9]": {"conditions": "Vacuum 1000 mtorr, −40° C. (5 hrs)"}},
  "note": "Values joined by “and” are separate entries in the source; they are usually repeats but may differ in a detail not shown here. Equal entries are not always repeated. Where two headings read alike, the source gives them in different places.",
  "data": [
    {"smiles": "Cl.[O-][P+]1(N(CCCl)CCCl)NCCCO1", "note": "(stereo not drawn) [Cyclophosphamide monohydrate, 2-[bis(2-chloroethyl)amino]tetrahydro-2H-1,3,2-oxazaphosphorine 2-oxide monohydrate]", "values": [
      {"measurement": "quantity of solvent consumed for dissolving 100 mg", "setting": "[1]; Acetone", "result": 0.4, "unit": "mL"},
      {"measurement": "quantity of solvent consumed for dissolving 100 mg", "setting": "[1]; Acetonitrile", "result": 0.5, "unit": "mL"},
      {"measurement": "quantity of solvent consumed for dissolving 100 mg", "setting": "[1]; Dimethyacetamide", "result": 2.0, "unit": "mL"},
      {"measurement": "quantity of solvent consumed for dissolving 100 mg", "setting": "[1]; Ethanol", "result": 0.5, "unit": "mL"},
      {"measurement": "quantity of solvent consumed for dissolving 100 mg", "setting": "[1]; Tertiary butyl alcohol", "result": 0.5, "unit": "mL"},
      {"measurement": "quantity of solvent consumed for dissolving 100 mg", "setting": "[1]; Water", "result": 2.45, "unit": "mL"},
      {"measurement": "Water Activity (aw)", "setting": "[2]", "result": "0.374 and 0.372 and 0.373"},
      {"measurement": "Moisture Content (%)", "setting": "[3]", "result": "6.64% and 6.75% and 6.72%"},
      {"measurement": "% Moisture content", "setting": "[4]; Initial", "result": 6.87, "unit": "%"},
      {"measurement": "Observation for Description", "setting": "[4]; Initial", "result": "Powder"},
      {"measurement": "% Moisture content", "setting": "[4]; [5]", "result": 2.94, "unit": "%"},
      {"measurement": "Observation for Description", "setting": "[4]; [5]", "result": "Liquid"},
      {"measurement": "% Moisture content", "setting": "[4]; [6]", "result": 4.52, "unit": "%"},
      {"measurement": "Observation for Description", "setting": "[4]; [6]", "result": "Sticky"},
      {"measurement": "% Moisture content", "setting": "[4]; [7]", "result": 6.29, "unit": "%"},
      {"measurement": "Observation for Description", "setting": "[4]; [7]", "result": "Powder"},
      {"measurement": "% Moisture content", "setting": "[4]; [8]", "result": 6.27, "unit": "%"},
      {"measurement": "Observation for Description", "setting": "[4]; [8]", "result": "Powder"},
      {"measurement": "% Moisture content", "setting": "[4]; [9]", "result": 6.23, "unit": "%"},
      {"measurement": "Observation for Description", "setting": "[4]; [9]", "result": "Powder"},
      {"measurement": "Description", "setting": "[4]; −10 °C, 350 mtorr and 6 hours", "result": "Powder"},
      {"measurement": "Moisture Content (%)", "setting": "[4]; −10 °C, 350 mtorr and 6 hours", "result": 7.56, "unit": "%"},
      {"measurement": "Description", "setting": "[4]; −15 °C, 350 mtorr and 12 hours", "result": "Powder"},
      {"measurement": "Moisture Content (%)", "setting": "[4]; −15 °C, 350 mtorr and 12 hours", "result": 6.99, "unit": "%"},
      {"measurement": "Description", "setting": "[4]; −25 °C, 150 mtorr and 6 hours", "result": "Powder"},
      {"measurement": "Moisture Content (%)", "setting": "[4]; −25 °C, 150 mtorr and 6 hours", "result": 6.87, "unit": "%"},
      {"measurement": "Description", "setting": "[4]; −25 °C, 150 mtorr and 15 hours", "result": "Sticky Mass"},
      {"measurement": "Moisture Content (%)", "setting": "[4]; −25 °C, 150 mtorr and 15 hours", "result": 4.55, "unit": "%"},
      {"measurement": "Description", "setting": "[4]; −25 °C, 280 mtorr and 12 hours", "result": "Powder"},
      {"measurement": "Moisture Content (%)", "setting": "[4]; −25 °C, 280 mtorr and 12 hours", "result": 6.51, "unit": "%"}
    ]}
  ]
}
